Measured values published in ChEMBL document CHEMBL3991601, “The target landscape of clinical kinase drugs” (Science, 2017).
Activity calls are given as the source filed them.

Experiments:
[1] = biological target: Rho-associated protein kinase 1 (Homo sapiens, UniProt Q13464)
Myosin-10 = Myosin-10 (Homo sapiens, UniProt P35580)
[2] = biological target: High affinity nerve growth factor receptor (Homo sapiens, UniProt P04629)
[3] = biological target: T1, Receptor-type tyrosine-protein kinase FLT3 (Homo sapiens, UniProt P36888)
T1 sequence (P36888 whole entry): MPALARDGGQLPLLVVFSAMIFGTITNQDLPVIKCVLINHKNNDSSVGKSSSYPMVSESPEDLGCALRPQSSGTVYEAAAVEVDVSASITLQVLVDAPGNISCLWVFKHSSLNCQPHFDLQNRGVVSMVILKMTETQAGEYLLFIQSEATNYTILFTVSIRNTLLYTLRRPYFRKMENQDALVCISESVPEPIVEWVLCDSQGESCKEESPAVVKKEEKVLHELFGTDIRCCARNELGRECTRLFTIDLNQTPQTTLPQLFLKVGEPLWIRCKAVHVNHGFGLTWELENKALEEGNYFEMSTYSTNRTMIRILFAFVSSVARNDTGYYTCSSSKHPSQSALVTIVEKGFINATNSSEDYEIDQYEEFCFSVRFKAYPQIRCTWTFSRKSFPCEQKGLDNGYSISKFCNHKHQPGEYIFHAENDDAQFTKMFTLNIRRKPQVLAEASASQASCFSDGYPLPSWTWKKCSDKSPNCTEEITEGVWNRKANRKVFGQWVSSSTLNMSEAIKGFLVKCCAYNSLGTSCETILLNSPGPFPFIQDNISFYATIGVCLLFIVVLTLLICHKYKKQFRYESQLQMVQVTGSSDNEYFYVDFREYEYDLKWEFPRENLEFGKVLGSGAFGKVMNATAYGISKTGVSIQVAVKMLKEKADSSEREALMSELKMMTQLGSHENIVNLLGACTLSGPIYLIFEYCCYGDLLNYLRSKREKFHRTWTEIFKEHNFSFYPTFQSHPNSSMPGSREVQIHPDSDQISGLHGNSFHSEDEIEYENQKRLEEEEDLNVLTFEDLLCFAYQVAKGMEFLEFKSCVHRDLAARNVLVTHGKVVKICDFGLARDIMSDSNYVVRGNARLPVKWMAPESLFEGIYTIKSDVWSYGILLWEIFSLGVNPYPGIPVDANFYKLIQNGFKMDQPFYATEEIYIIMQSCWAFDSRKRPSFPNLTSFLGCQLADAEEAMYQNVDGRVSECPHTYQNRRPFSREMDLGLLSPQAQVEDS

[4] = biological target: PAS domain-containing serine/threonine-protein kinase (Homo sapiens, UniProt Q96RG2)
PAS domain-containing serine/threonine-protein kinase, sequence (Q96RG2 whole entry, the tested form may be a part): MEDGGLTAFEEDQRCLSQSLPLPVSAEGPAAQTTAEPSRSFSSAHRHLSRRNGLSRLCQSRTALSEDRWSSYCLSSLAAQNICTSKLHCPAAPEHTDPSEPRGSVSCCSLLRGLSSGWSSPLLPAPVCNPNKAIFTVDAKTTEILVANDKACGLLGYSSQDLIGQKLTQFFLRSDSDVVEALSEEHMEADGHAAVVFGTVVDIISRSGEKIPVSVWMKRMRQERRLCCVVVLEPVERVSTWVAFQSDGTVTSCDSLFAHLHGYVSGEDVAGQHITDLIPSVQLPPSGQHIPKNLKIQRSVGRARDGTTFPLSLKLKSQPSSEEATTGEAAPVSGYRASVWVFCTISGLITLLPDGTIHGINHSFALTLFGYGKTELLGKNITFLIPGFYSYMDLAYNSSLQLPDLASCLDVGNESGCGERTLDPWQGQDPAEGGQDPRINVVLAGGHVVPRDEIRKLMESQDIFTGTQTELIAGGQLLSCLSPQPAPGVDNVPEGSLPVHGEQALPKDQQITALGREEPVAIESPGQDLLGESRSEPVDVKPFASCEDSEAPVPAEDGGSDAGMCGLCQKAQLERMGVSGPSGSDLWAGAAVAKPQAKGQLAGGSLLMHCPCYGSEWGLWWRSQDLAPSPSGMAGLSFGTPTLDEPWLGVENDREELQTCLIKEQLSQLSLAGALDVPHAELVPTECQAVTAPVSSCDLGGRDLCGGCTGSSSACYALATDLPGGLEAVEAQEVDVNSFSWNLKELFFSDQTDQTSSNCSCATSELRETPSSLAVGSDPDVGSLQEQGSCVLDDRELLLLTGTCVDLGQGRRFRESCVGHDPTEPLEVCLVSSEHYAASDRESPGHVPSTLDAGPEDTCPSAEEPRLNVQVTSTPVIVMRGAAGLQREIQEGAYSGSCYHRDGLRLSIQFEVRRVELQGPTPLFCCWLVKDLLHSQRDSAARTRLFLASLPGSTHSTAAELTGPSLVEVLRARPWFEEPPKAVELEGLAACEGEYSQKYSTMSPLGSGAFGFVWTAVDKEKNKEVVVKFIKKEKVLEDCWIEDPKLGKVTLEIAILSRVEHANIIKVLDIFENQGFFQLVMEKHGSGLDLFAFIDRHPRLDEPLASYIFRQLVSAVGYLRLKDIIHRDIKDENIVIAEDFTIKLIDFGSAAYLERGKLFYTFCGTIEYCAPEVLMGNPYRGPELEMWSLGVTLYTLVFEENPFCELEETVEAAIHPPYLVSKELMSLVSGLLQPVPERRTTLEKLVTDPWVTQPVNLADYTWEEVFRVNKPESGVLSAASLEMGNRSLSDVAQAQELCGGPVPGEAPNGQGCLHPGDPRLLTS

[5] = biological target: Membrane-associated progesterone receptor component 1 (Homo sapiens, UniProt O00264)
Membrane-associated progesterone receptor component 1, sequence (O00264 whole entry): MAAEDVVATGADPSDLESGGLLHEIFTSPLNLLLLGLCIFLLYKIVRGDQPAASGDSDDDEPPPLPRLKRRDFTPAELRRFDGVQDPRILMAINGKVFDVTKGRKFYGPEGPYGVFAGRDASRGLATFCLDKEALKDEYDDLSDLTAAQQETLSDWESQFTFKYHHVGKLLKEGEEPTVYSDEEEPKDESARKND

[6] = biological target: T2, Cyclin-dependent kinase-like 5 (Homo sapiens, UniProt O76039)
T2 sequence (O76039 whole entry): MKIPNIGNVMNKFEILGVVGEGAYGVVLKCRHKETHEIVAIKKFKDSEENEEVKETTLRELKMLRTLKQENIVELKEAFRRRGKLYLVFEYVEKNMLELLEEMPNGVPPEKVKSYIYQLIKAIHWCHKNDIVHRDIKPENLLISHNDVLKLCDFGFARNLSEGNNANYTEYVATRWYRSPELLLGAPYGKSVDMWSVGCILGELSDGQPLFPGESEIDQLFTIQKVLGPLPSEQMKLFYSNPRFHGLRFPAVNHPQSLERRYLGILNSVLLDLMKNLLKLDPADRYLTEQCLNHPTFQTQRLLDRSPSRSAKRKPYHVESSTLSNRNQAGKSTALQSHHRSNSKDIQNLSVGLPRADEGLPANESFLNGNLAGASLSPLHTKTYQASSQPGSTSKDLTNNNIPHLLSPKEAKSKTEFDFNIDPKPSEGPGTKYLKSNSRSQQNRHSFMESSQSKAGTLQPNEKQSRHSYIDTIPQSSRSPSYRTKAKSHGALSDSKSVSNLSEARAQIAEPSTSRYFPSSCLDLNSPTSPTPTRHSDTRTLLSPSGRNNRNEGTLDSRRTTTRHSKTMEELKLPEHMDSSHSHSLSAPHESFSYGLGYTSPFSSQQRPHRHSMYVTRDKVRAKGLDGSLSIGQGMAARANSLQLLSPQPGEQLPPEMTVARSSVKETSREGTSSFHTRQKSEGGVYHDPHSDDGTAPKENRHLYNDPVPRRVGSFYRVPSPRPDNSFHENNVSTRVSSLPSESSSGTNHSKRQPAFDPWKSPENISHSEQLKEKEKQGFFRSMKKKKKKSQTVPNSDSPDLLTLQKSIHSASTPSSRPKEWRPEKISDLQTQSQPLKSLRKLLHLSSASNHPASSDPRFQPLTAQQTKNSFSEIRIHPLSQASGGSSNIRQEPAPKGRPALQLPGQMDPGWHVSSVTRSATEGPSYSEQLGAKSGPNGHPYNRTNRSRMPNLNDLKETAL

[7] = biological target: Dual specificity testis-specific protein kinase 2 (Homo sapiens, UniProt Q96S53)
Dual specificity testis-specific protein kinase 2, sequence (Q96S53 whole entry): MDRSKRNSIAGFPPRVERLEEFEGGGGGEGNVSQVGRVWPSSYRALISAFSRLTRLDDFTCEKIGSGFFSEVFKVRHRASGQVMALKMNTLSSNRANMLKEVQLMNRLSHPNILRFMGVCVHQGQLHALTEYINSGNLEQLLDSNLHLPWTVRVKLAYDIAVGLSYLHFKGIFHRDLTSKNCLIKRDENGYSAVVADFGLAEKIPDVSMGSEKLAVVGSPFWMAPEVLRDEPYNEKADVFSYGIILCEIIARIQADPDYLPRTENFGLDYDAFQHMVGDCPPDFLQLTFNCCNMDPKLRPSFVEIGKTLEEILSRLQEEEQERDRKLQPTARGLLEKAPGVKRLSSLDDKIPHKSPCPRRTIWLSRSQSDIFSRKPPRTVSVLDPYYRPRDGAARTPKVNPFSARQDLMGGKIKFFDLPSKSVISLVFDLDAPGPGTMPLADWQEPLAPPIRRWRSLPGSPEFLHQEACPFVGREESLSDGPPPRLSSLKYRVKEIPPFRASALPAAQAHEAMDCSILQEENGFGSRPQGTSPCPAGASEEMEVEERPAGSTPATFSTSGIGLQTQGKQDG
Note: in the data inactive means no Kd found up to 30 µM.

Myosin-10, sequence (P35580 whole entry): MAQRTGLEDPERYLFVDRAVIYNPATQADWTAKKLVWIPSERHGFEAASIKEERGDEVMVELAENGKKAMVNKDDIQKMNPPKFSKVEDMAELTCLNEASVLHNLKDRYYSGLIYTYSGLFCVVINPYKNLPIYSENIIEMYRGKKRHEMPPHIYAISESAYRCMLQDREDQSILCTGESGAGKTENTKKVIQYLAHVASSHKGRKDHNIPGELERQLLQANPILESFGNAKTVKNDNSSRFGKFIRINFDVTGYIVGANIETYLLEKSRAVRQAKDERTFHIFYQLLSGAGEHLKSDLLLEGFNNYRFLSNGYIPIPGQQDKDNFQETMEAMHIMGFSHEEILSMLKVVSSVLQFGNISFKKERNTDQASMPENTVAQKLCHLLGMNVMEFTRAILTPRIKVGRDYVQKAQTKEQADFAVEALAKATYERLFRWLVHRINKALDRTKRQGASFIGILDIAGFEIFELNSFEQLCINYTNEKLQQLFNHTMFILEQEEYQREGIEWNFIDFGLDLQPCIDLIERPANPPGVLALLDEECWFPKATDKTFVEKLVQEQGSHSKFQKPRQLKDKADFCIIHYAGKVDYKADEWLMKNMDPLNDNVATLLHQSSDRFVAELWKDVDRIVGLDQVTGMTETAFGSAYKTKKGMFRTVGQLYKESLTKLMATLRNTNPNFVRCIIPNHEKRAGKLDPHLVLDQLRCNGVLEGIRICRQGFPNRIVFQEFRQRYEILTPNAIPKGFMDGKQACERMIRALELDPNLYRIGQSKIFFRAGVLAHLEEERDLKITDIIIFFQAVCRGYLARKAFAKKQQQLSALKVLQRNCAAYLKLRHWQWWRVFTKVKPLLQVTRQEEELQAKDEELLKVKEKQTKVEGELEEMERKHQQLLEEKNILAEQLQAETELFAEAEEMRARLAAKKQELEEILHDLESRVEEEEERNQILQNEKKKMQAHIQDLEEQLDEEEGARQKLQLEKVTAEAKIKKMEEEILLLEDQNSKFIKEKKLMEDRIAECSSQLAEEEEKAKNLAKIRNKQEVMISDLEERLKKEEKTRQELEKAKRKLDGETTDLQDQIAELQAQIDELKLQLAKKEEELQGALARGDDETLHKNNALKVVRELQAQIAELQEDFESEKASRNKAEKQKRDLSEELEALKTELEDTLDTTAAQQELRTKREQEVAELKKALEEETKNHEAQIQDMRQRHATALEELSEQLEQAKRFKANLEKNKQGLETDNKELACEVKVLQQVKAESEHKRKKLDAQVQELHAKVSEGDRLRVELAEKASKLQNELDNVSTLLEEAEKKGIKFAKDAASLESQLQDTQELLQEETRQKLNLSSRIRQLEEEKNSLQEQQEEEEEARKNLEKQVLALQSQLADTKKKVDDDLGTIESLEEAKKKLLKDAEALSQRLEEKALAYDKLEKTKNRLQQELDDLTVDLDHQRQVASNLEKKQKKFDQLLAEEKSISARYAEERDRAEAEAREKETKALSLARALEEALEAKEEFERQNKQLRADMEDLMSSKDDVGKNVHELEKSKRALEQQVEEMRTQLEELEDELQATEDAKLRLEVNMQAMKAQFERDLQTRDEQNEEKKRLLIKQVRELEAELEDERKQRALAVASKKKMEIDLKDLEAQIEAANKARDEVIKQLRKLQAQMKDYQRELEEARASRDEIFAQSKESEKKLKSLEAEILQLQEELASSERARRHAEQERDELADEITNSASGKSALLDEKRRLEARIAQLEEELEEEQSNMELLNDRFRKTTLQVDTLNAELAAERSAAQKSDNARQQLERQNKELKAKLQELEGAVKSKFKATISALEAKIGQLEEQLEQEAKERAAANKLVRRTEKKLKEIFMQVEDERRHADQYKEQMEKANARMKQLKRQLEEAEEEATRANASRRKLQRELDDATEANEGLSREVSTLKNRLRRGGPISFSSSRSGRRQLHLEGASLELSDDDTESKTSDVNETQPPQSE
High affinity nerve growth factor receptor, sequence (P04629 whole entry): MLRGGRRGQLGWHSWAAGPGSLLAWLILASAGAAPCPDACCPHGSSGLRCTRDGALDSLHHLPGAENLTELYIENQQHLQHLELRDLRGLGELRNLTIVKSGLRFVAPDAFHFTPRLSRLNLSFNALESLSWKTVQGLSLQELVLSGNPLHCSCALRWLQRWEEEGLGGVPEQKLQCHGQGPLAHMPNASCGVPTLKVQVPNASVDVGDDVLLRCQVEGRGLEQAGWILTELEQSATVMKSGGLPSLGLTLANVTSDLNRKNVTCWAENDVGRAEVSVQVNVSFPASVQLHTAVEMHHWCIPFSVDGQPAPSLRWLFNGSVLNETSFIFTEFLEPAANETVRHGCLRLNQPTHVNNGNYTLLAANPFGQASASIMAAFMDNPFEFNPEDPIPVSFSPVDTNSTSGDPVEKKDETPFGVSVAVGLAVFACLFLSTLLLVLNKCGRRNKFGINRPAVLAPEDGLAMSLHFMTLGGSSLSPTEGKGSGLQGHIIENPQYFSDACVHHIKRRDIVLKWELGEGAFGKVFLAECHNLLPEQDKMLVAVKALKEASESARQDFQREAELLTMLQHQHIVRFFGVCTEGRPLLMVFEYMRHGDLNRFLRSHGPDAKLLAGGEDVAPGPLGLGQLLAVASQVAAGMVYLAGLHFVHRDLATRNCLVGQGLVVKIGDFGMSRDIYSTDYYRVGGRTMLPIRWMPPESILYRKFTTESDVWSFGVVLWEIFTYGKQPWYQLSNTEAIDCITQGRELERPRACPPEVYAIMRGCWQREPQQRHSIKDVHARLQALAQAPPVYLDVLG

Row | SMILES | Kd [1] | Kd (Myosin-10) | Kd [2] | Kd [3] | Kd [4] | Kd [5] | Kd [6] | Kd [7]
1 | Cc1c(NC(=O)OC[C@@H]2COCCN2)cn2ncnc(Nc3ccc4c(cnn4Cc4cccc(F)c4)c3)c12 [AC-480] | > 30 µM (inactive) | > 30 µM (inactive) | > 30 µM (inactive) | > 30 µM (inactive) | > 30 µM (inactive) | – | – | –
2 | CN(c1ncccc1CNc1nc(Nc2ccc3c(c2)CC(=O)N3)ncc1C(F)(F)F)S(C)(=O)=O [PF-00562271] | – | > 30 µM (inactive) | – | – | > 30 µM (inactive) | > 30 µM (inactive) | > 30 µM (inactive) | –
3 | NC[C@@](O)(c1ccc(Cl)cc1)c1ccc(-c2cn[nH]c2)cc1 [AT-13148] | 0.027 µM (active) | > 30 µM (inactive) | – | > 30 µM (inactive) | – | > 30 µM (inactive) | – | –
4 | CNC(=O)c1cc(COc2nnc(Nc3ccc(Cl)cc3)c3ccoc23)ccn1 [TELATINIB] | – | – | > 30 µM (inactive) | > 30 µM (inactive) | > 30 µM (inactive) | > 30 µM (inactive) | – | > 30 µM (inactive)
5 | CN1CCN(c2nc(C3=C(c4c[nH]c5ccccc45)C(=O)NC3=O)c3ccccc3n2)CC1 [SOTRASTAURIN] | > 30 µM (inactive) | – | > 30 µM (inactive) | > 30 µM (inactive) | – | – | > 30 µM (inactive) | –
6 | CC(C)CC(=O)Nc1[nH]nc2c1CN(C(=O)C1CCN(C)CC1)C2(C)C [PHA-793887] | – | > 30 µM (inactive) | > 30 µM (inactive) | > 30 µM (inactive) | > 30 µM (inactive) | > 30 µM (inactive) | – | –
7 | CNC(=O)c1ccc(Nc2ncc(C(F)(F)F)c(NCc3nccnc3N(C)S(C)(=O)=O)n2)cc1 [DEFACTINIB] | > 30 µM (inactive) | – | – | 0.34 µM (active) | – | > 30 µM (inactive) | 0.016 µM | > 30 µM (inactive)
8 | CCc1nc(C(N)=O)c(Nc2ccc(N3CCC(N4CCN(C)CC4)CC3)c(OC)c2)nc1NC1CCOCC1 [GILTERITINIB] | > 30 µM (inactive) | – | > 30 µM (inactive) | – | – | > 30 µM (inactive) | > 30 µM (inactive) | –
9 | FC(F)(F)c1ccc(CNc2ccc(Cc3c[nH]c4ncc(Cl)cc34)cn2)cn1 [PEXIDARTINIB] | > 30 µM (inactive) | > 30 µM (inactive) | > 30 µM (inactive) | – | > 30 µM (inactive) | > 30 µM (inactive) | – | –
10 | O=c1[nH]c([C@@H]2CCCN2)nc2c1oc1ccc(Cl)cc12 | – | – | – | > 30 µM (inactive) | – | > 30 µM (inactive) | – | –
11 | N#CCNC(=O)c1ccc(-c2ccnc(Nc3ccc(N4CCOCC4)cc3)n2)cc1 [MOMELOTINIB] | 1.36 µM (active) | – | > 30 µM (inactive) | – | > 30 µM (inactive) | > 30 µM (inactive) | > 30 µM (inactive) | –
12 | C=CC(=O)Nc1cccc(Nc2nc(Nc3ccc(N4CCN(C(C)=O)CC4)cc3OC)ncc2C(F)(F)F)c1 [ROCILETINIB] | > 30 µM (inactive) | > 30 µM (inactive) | > 30 µM (inactive) | > 30 µM (inactive) | – | – | – | –
13 | CC[C@@](C)(Nc1ccnc(-c2c[nH]c3ncccc23)n1)C(=O)NCC(F)(F)F [DECERNOTINIB] | 13.5 µM (active) | > 30 µM (inactive) | > 30 µM (inactive) | > 30 µM (inactive) | > 30 µM (inactive) | > 30 µM (inactive) | > 30 µM (inactive) | –
14 | Cc1ccc(C(=O)Nc2ccc(Oc3cc4cnn(C)c4cc3-c3cn[nH]c3)c(F)c2)c(=O)n1-c1ccc(F)cc1 [MERESTINIB] | > 30 µM (inactive) | > 30 µM (inactive) | 1.03 µM | 0.309 µM (active) | > 30 µM (inactive) | > 30 µM (inactive) | – | –
15 | O=C(NOC[C@H](O)CO)c1ccc(F)c(F)c1Nc1ccc(I)cc1F [MIRDAMETINIB] | > 30 µM (inactive) | > 30 µM (inactive) | > 30 µM (inactive) | > 30 µM (inactive) | > 30 µM (inactive) | > 30 µM (inactive) | – | –
16 | S=C(NCc1ccc2c(c1)OCO2)N1CCN(c2ncnc3c2oc2ccccc23)CC1 [AMUVATINIB] | > 30 µM (inactive) | > 30 µM (inactive) | > 30 µM (inactive) | > 30 µM (inactive) | > 30 µM (inactive) | > 30 µM (inactive) | – | –
17 | C=CCN(/C=C1/C(=O)O[C@H](COC)[C@@]2(C)C1=C(O)C(=O)C1=C2[C@H](OC(C)=O)C[C@]2(C)C(=O)CC[C@@H]12)CC=C [SONOLISIB] | > 30 µM (inactive) | > 30 µM (inactive) | – | > 30 µM (inactive) | – | – | > 30 µM (inactive) | –
18 | C=CC(=O)Nc1cc(Nc2nccc(-c3cn(C)c4ccccc34)n2)c(OC)cc1N(C)CCN(C)C [OSIMERTINIB] | > 30 µM (inactive) | > 30 µM (inactive) | > 30 µM (inactive) | > 30 µM (inactive) | – | > 30 µM (inactive) | > 30 µM (inactive) | > 30 µM (inactive)
19 | CCN(CCCOc1ccc2c(Nc3cc(CC(=O)Nc4cccc(F)c4)n[nH]3)ncnc2c1)CCOP(=O)(O)O [BARASERTIB] | – | – | – | – | – | > 30 µM (inactive) | > 30 µM (inactive) | > 30 µM (inactive)
20 | O=C(O)c1ccc2c(c1)nc(Nc1cccc(Cl)c1)c1ccncc12 [SILMITASERTIB] | – | – | > 30 µM (inactive) | – | – | > 30 µM (inactive) | > 30 µM (inactive) | > 30 µM (inactive)
21 | COc1cc2ncnc(Nc3ccc(F)c(Cl)c3)c2cc1NC(=O)/C=C/CN1CCCCC1 [DACOMITINIB ANHYDROUS] | > 30 µM (inactive) | – | > 30 µM (inactive) | > 30 µM (inactive) | – | – | > 30 µM (inactive) | > 30 µM (inactive)

Second part, the compound after the results:

Row | Kd [1] | Kd (Myosin-10) | Kd [2] | Kd [3] | Kd [4] | Kd [5] | Kd [6] | Kd [7] | SMILES
22 | > 30 µM (inactive) | – | > 30 µM (inactive) | > 30 µM (inactive) | – | – | > 30 µM (inactive) | > 30 µM (inactive) | Cc1cc(C(=O)Nc2cc(Oc3ccc4nc(NC(=O)C5CC5)cn4n3)ccc2C)n(C)n1 [TAK-593]
23 | – | – | > 30 µM (inactive) | > 30 µM (inactive) | – | > 30 µM (inactive) | > 30 µM (inactive) | > 30 µM (inactive) | c1cc(OCCN2CCCCC2)cc(-c2n[nH]c3ccc(-c4nc[nH]n4)cc23)c1 [CC-401]
24 | > 30 µM (inactive) | > 30 µM (inactive) | – | – | – | – | > 30 µM (inactive) | – | CCOc1ccn(-c2ccc(F)cc2)c(=O)c1C(=O)Nc1ccc(Oc2ccnc(N)c2Cl)c(F)c1 [BMS-777607]
25 | > 30 µM (inactive) | – | > 30 µM (inactive) | > 30 µM (inactive) | – | > 30 µM (inactive) | > 30 µM (inactive) | – | CC(C)(O)CC(=O)NCCn1ccc2ncnc(Nc3ccc(Oc4cccc(C(F)(F)F)c4)c(Cl)c3)c21 [TAK-285]
26 | > 30 µM (inactive) | – | > 30 µM (inactive) | > 30 µM (inactive) | – | – | – | > 30 µM (inactive) | COc1cc2ncnc3c2cc1OCCCCCN(C)Cc1ccc(Br)cc1N3 [JNJ-26483327]
27 | > 30 µM (inactive) | > 30 µM (inactive) | – | > 30 µM (inactive) | – | > 30 µM (inactive) | > 30 µM (inactive) | > 30 µM (inactive) | COc1ccc2c(OCc3nnc4ccc(-c5ccccc5)nn34)ccnc2c1 [AMG-208]
